Source: paper PMC10458458, “Characterization of Anticancer Effects of the Analogs of DJ4, a Novel Selective Inhibitor of ROCK and MRCK Kinases” (Pharmaceuticals, 2023)

What was measured:
Experiment in all cases: NCI-60 screen (SRB)
Type in all cases: cell-based, human
MOLT-4 = MOLT-4 (Leukemia), 10 µM, 48 h; negative = cell death vs time zero
Excerpt: (§1) The selected active compounds were screened at NCI, as a part of In Vitro Cell Line Screening Project (IVCLSP), for their effect on cell growth in 60 different cancer cell lines. The 60 human cancer cell line panel included leukemia, melanoma, non-small cell lung cancer, colon, central nervous system (CNS), ovarian, renal, prostate, and breast cancer cell lines. The detailed procedure and applications of NCI-60 cell line screening can be found at https://dtp.cancer.gov/discovery_development/nci-60/default.htm (accessed on 9 January 2023). Briefly, cells were plated in 96-well plates and incubated for 24 h. One set of cells was fixed with trichloroacetic acid at time 0 h (Tz), and SRB (sulphorhodamine B) assays were performed to quantify the cells. The remaining set of cells were treated with 10 µM single concentration of each compound and incubated for 48 h (Te) after which the cells were fixed, and the SRB assays were performed. Data are presented as percent growth relative to the control as 100% according to the following calculations:
(§2) When Te >/= Tz. Growth(%)=Te−Tz/C−Tz∗100 and when Te < Tz. (1) Growth(%)=Te−Tz/Tz∗100
(§3) Values between 0–100 indicate cell growth, zero (0) indicates no cell growth, values < 0 indicate cell death.

SN12C = SN12C (Renal Cancer), 10 µM, 48 h; negative = cell death vs time zero
Excerpt: as §1, §2, §3

SF-295 = SF-295 (CNS Cancer), 10 µM, 48 h; negative = cell death vs time zero
Excerpt: as §1, §2, §3

HCT-15 = HCT-15 (Colon Cancer), 10 µM, 48 h; negative = cell death vs time zero
Excerpt: as §1, §2, §3

UO-31 = UO-31 (Renal Cancer), 10 µM, 48 h; negative = cell death vs time zero
Excerpt: as §1, §2, §3

CCRF-CEM = CCRF-CEM (Leukemia), 10 µM, 48 h; negative = cell death vs time zero
Excerpt: as §1, §2, §3

SK-MEL-5 = SK-MEL-5 (Melanoma), 10 µM, 48 h; negative = cell death vs time zero
Excerpt: as §1, §2, §3

NCI-H522 = NCI-H522 (Non-Small Cell Lung Cancer), 10 µM, 48 h; negative = cell death vs time zero
Excerpt: as §1, §2, §3

NCI-H460 = NCI-H460 (Non-Small Cell Lung Cancer), 10 µM, 48 h; negative = cell death vs time zero
Excerpt: as §1, §2, §3

ACHN = ACHN (Renal Cancer), 10 µM, 48 h; negative = cell death vs time zero
Excerpt: as §1, §2, §3

EKVX = EKVX (Non-Small Cell Lung Cancer), 10 µM, 48 h; negative = cell death vs time zero
Excerpt: as §1, §2, §3

U251 = U251 (CNS Cancer), 10 µM, 48 h; negative = cell death vs time zero
Excerpt: as §1, §2, §3

LOX IMVI = LOX IMVI (Melanoma), 10 µM, 48 h; negative = cell death vs time zero
Excerpt: as §1, §2, §3

OVCAR-8 = OVCAR-8 (Ovarian Cancer), 10 µM, 48 h; negative = cell death vs time zero
Excerpt: as §1, §2, §3

SMILES	percent cell growth (MOLT-4) [%]	percent cell growth (SN12C) [%]	percent cell growth (SF-295) [%]	percent cell growth (HCT-15) [%]	percent cell growth (UO-31) [%]	percent cell growth (CCRF-CEM) [%]	percent cell growth (SK-MEL-5) [%]	percent cell growth (NCI-H522) [%]	percent cell growth (NCI-H460) [%]	percent cell growth (ACHN) [%]	percent cell growth (EKVX) [%]	percent cell growth (U251) [%]	percent cell growth (LOX IMVI) [%]	percent cell growth (OVCAR-8) [%]
C=CC/N=C1\NC(=O)/C(=C\c2c[nH]c3ncccc23)S1 [DJ-Allyl]	5.8	24.0	13.0	24.7	3.1	7.1	2.0	−5.3	2.2	−1.2	30.5	0.8	0.6	10.7
Cl.O=C1NC(=NCCc2ccccc2)SC1=Cc1c[nH]c2ncccc12 (mixture of isomers) [DJ4-HCl]	8.6	33.5	18.7	33.5	36.6	5.5	−0.2	4.3	15.1	−12.0	40.9	7.6	8.3	9.7
O=C1N/C(=N\CCc2ccccc2)S/C1=C/c1c[nH]c2ncccc12 [DJ4]	11.4	15.9	22.6	36.5	25.2	9.9	14.5	26.6	14.1	16.0	46.0	15.8	16.3	14.0
CC/N=C1\NC(=O)/C(=C\c2c[nH]c3ncccc23)S1 [DJE4]	−6.0	12.6	5.0	16.0	7.5	3.0	9.2	−28.6	2.4	0.7	14.1	−9.5	1.8	6.3
